Test results taken from US4129643A, “Method for rapid screening of teratogenic agents” (priority 1976, dated 1978).

Assays:
Format in all cases: cell-based
[1] = test system: lens epithelial cells; assay: protein profile (accumulated protein, stained isoelectric focussing gels) of lens epithelial cells grown in amniotic fluid from injected mice; details: diluted to 50% with culture medium; for changes in the protein profile (bands of stained gels): Coomassie Blue stained gels, densitometry
Experimental: Similar densitometry is made of the autoradiograph of the gels. Each analysis can be done on a culture grown from a cell suspension of as little as 1-4.5 × 10^5 cells, but can be scaled up or down as required.
(§1) Mice of numerous genotypes were taken from amongst all the more prolific strains available from the Institute of Animal Genetics Mouse House (Mouse News Letter, 1974). They were mated and the pregnancies dated by vaginal plug. They were injected once, subcutaneously, with a teratogen, between 12-15 days of gestation in order to obtain a large volume of clear amniotic fluid. 1-2 hours after the injection the mice were killed by cervical dislocation, the uteri removed and the amniotic fluid harvested under sterile conditions, passed through a Millex filter and stored at -20°C. Control amniotic fluids were obtained from uninjected mice of a similar range of genotypes and stages of gestation. Mice were injected with double the teratogenic doses used for 6-aminonicotinamide by Pinsky and Fraser (Biol. Neonat., 1,106-112 (1959)) and for sodium acetyl salicylate by Larsson and Erickson (Acta. Paed. Scand., 55, 569-576, )1976)), but the amniotic fluids were diluted to 50% with culture medium for use, thus giving a final concentration similar to that used by these authors. Five batches of pooled amniotic fluid of each kind were prepared in this way and tested in separate culture experiments.
Cultures of dissociated lens epithelial cells were prepared according to Okada, Eguchi and Takeichi (Dev. Growth Diffn., 13,323-326 (197l)), and plated at 4.5 × 10^5 cells per dish in 3.5 ml Earles MEM (Biocult) containing 6% foetal calf serum (Gibco). The medium was changed at 2 days, and after 4 days, when these cells were in log phase, the medium was replaced by 1 ml of medium and 1 ml of amniotic fluid. After two further days the cells were labelled for 4 to 5 hours with ^14 C mixed amino acids (Amersham) at 20 μCi/ml. The cultures were washed several times in Hanks solution, harvested with a miniature plastic scraper and taken up into a drop of 8M urea containing 10 mM β-mercaptoethanol. The drop was frozen and thawed three times to liberate the cell contents. When required, the living cells were examined with a Gilbert and Siebert inverted phase microscope.
Polyacrylamide gels containing ampholines according to Wrigley (Science Tools, 15, 17-23, (1968)) were modified to contain 6M urea, 10mM β-mercaptoethanol, and an ampholine mixture giving a gradient from pH 3 to 10, flattened in the region of 4.5 to 7.0. Such gels give especially high resolution for crystallins and are now routinely used in my laboratory. 20 μl of cell preparation was added to each gel which was electrofocussed overnight according to Wrigley (loc. cit.). […]

[2] = test system: test cells; assay: screening test for teratogenic activity with cells cultured in amniotic fluid; details: tests on two teratogens in the mouse
Excerpt: According to my invention I provide a process for screening a compound for teratogenic activity comprising administering the compound being screened to a test animal, removing amniotic fluid from the test animal, using the amniotic fluid removed as part or all of a cell culture medium, and measuring the effect on cell properties of cells grown in the culture medium containing the amniotic fluid from the test animal as compared with the use of amniotic fluid from an otherwise identical control animal that has not had the compound being screened administered to it.
(1) Amniotic fluid is used as cell culture medium or as an additive to a standardised cell culture medium in order to test the substance as processed by the maternal organism. Amniotic fluids either from animals of diverse genotype or of selected genotypes, as required, are pooled. […]
(2) A standardised cell suspension is innoculated into cultures and grown during log phase in the medium containing amniotic fluid from a control or test series as described above. […] Lens epithelium has been used since I have published evidence that quantitative regulation of specific syntheses is of especial importance in this orgen and the assay system described in (3) below detects changes in mitotic rate, cell mass, and growth conditions, cell surface modification and genetically determined pathology. […]

[3] = test system: lens epithelial cells; assay: morphology of lens epithelial cells grown in amniotic fluid from injected mice; details: amniotic fluid from mice injected once s.c. at 12-15 days gestation, harvested 1-2 h after; diluted to 50% with culture medium; two days' culture
Experimental: as §1, with “experiments. […]” for “experiments.”

`NC(=O)c1ccc(N)nc1` [6-aminonicotinamide] was tested, and the “other quantitative changes in the protein profile” value [1] was “some other, less striking quantitative changes were also recorded”, the “changes in the protein profile (bands of stained gels)” value [1] was “one band being missing and one exaggerated” and the “discrimination of treated cells from control cells” value [2] was “distinguish reliably and specifically between the cells treated by each of these teratogens, and control cells”. For the same molecule, the “cell outline / morphology” value [3] was “modified cell outline”.

With `CC(=O)Oc1ccccc1C(=O)O` [sodium acetyl salicylate] the “other quantitative changes in the protein profile” value [1] was “Other quantitative changes were also observed”, the “changes in the protein profile (bands of stained gels)” value [1] was “lacking in the band which was enhanced by 6-aminonicotinamide treatment” and the “discrimination of treated cells from control cells” value [2] was “distinguish reliably and specifically between the cells treated by each of these teratogens, and control cells”. The “cell outline / morphology” value [3] was “normal in morphology”.
